We go through 44 compounds from patent US20260053794A1, “SOMATOSTATIN RECEPTOR 2 AGONISTS AND USES THEREOF” (Exelixis, Inc., priority 2022, published 2026).

Each structure is given as a SMILES string. Bounds are passed on as bounds.

This assay deals with T1, Somatostatin Receptor 2 (SSTR2) (Homo sapiens, UniProt P30874).
T1 construct: expressed in transfected cells
T1 sequence (P30874 whole entry, species assumed): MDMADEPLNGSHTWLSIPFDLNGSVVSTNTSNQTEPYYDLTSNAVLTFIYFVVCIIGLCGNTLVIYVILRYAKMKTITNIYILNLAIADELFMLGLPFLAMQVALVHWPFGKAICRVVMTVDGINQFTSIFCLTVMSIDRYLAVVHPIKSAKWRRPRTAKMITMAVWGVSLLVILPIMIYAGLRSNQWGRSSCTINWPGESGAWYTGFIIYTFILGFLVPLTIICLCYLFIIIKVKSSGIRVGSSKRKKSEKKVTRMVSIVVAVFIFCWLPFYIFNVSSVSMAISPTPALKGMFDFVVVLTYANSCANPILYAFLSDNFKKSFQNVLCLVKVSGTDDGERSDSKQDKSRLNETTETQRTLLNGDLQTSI
Nature of the assay: Biochemical Assay for Activation of Somatostatin Receptor 2 (SSTR2), Cisbio HTRF cAMP assay. It is filed as cell-based. The conditions noted are these: average pEC50; HTRF cAMP assay in stably-transfected cell line expressing SSTR2; cells incubated with compounds for 1-2h. As for the experimental part:
Biochemical Assay for Activation of Somatostatin Receptor 2 (SSTR2)
Agonistic activation of SSTRs leads to an […] production of intracellular cAMP levels. Cisbio's homogeneous time-resolved fluorescence (HTRF) cAMP assay was used to measure cAMP concentration in an high-throughput format. Increase in intracellular cAMP concentrations was measuring using a stably-transfected cell line expressing SSTR2. Test compounds were dissolved in DMSO. Cells were incubated with compounds for 1-2h, and subsequently competitive binding of cAMP produced due to the activation of SSTR2 by the test compounds was measured using the Cisbio cAMP Gs dynamic assay system (Perkin Elmer, Bedford, MA).
The average pEC50 was determined for the test compounds.
On the technique in general: In TR-FRET formats the signal depends on donor and acceptor labels being close together.
Consider `CN1CCCCNC2CCN(CC2)c2c(-c3cc(F)cc(F)c3)cnc3ccc(cc23)-c2cccc(c2)C1=O` [Compound 81, 23-(3,5-difluorophenyl)-5-methyl-5, 10-diaza-2(4, 6)-quinolina-1(1, 4)-piperidina-3(1,3)-benzenacyclodecaphan-4-one], for which the EC50 (in general, the concentration at which the effect is half-maximal) is 2000 nM.

`NCCCn1c(=O)n2c3ccccc3cc2c2cncc(-c3cc(F)cc(F)c3)c21` [Compound 105, 5-(3-aminopropyl)-4-(3,5-difluorophenyl)pyrido[4′,3′:4,5]pyrimido [1,6-a]indol-6(5H)-one]: the EC50 is greater than 10000 nM.

For the compound `N[C@H]1CCN(c2c(-c3cc(F)cc(F)c3)cnc3c2C(=O)N(c2ccc(F)c(F)c2)CC3)C1` [Compound 114], the concentration giving a half-maximal response (EC50) is greater than 10000 nM.

Regarding `CN1CCCCNC2CCN(CC2)c2c(-c3cc(F)cc(F)c3)cnc3ccc(cc23)-c2cccnc2C1=O` [Compound 85], the EC50 is 6310 nM.

In the case of `COc1cc(F)cc(-c2cnc3c(nc(-c4cccc(C#N)c4O)n3C)c2N2CCC(N)CC2)c1` [Compound 34], the EC50 was 501 nM.

On to `NC1CCN(c2c(-c3nc4cc(F)c(F)cc4[nH]3)cnc3ncc4ccc(F)cc4c23)CC1` [Compound 120], for which the EC50 was 6310 nM.

`Cc1cc(C)cc(-c2cnc3c(c2N2CC[C@@H](N)C2)C(=O)N(c2cc(C)cc(C)c2)CC3)c1` [Compound 115]: the EC50 is 1000 nM.

Turning to `Cc1cc(F)cc(-c2cnc3ccc(-c4cc(F)cc(C(N)=O)c4)cc3c2O[C@H]2C[C@H](N)C2)c1` [Compound 19], the EC50 is 1 nM.

In the case of `NC(=O)c1cc(F)cc(-c2cc3ncc(-c4cc(F)cc(F)c4)c(N4CCC(N)CC4)c3o2)c1` [Compound 128], the EC50 was 100 nM.

Take `CO[C@@H]1CN(c2c(-c3cc(F)cc(F)c3)cnc3c2nc(-c2cc(F)cc(C(N)=O)c2)n3C)CC[C@H]1N` [Compound 24]: the EC50 was greater than 5010 nM.

For the compound `Cc1cc(F)cc(-c2cnc3ccc4cc3c2N2CCC(CC2)NCC[C@@H](N=[N+]=[N-])COc2c(C#N)cccc2-4)c1` (single isomer, unassigned) [Compound 96], the EC50 is 0.794 nM.

On to `COc1cc(F)cc(-c2cnc3ccc(-c4cccc(C#N)c4O)cc3c2O[C@@H]2CC[C@H](N)C2)c1` [Compound 7], for which the EC50 was 20 nM.

On to `O=C1NCCNC2CCN(CC2)c2c(-c3cc(F)cc(F)c3)cnc3ccc(cc23)-c2cccnc21` [Compound 79, 2^3-(3,5-difluorophenyl)-4,7-diaza-2(6,4)-quinolina-1(3,2)-pyridina-3(1,4)-piperidinacyclooctaphan-8-one], for which the EC50 is greater than 10000 nM.

For `CN1CCCCNC2CCN(CC2)c2c(-c3cc(F)cc(F)c3)cnc3ccc(cc23)-c2cccc(n2)C1=O` [Compound 82, 24-(3,5-difluorophenyl)-11-methyl-2,6,11,22,27-pentaazapentacyclo[16.6.2.2^2,^5.1^13,^17.0^21,^25]nonacosa-1(24),13(27),14,16,18(26),19,21(25),22-octaen-12-one], the EC50 is 25.1 nM.

`CO[C@@H]1CN(c2c(-c3cc(F)cc(F)c3)cnc3[nH]c(-c4ccc5[nH]c(=O)[nH]c5c4)nc23)CC[C@H]1N` [Compound 46, 5-(7-((3R,4R)-4-amino-3-methoxypiperidin-1-yl)-6-(3,5-difluorophenyl)-3H-imidazo[4,5-b]pyridin-2-yl)-1,3-dihydro-2H-benzo[d]imidazol-2-one]: the EC50 is greater than 10000 nM.

With `N#Cc1cccc(-c2cc3c(N4CCC(N)CC4)c(-c4cc(F)cc(F)c4)cnc3o2)c1O` [Compound 131], the EC50 was greater than 10000 nM.

Take `Cn1c(-c2cccc(Br)c2O)nc2c(N3CCC(NC(=O)OC(C)(C)C)CC3)c(-c3cc(F)cc(F)c3)cnc21` [Compound 40]: the EC50 was greater than 10000 nM.

With `CO[C@@H]1CN(c2c(-c3cc(F)cc(F)c3)cnc3c2nc(-c2cccc(C#N)c2O)n3C)CC[C@H]1N` [Compound 23, 3-(7-((3R,4R)-4-amino-3-methoxypiperidin-1-yl)-6-(3,5-difluorophenyl)-3-methyl-3H-imidazo[4,5-b]pyridin-2-yl)-2-hydroxybenzonitrile], the EC50 was greater than 10000 nM.

For the compound `Cc1cc(F)cc(-c2cnc3ccc4cc3c2N2CCC(CC2)NCCCCOc2ccccc2-4)c1` [Compound 76], the EC50 was 0.0794 nM.

Regarding `Cc1cc(F)cc(-c2cnc3ccc(-c4cc(F)cc(C(N)=O)c4)cc3c2O[C@@H]2CC[C@@H](N)C2)c1` [Compound 4], the EC50 was 0.398 nM.

Turning to `CO[C@@H]1CN(c2c(-c3cc(C)cc(F)c3)cnc3[nH]c(-c4cc(F)cc(C(N)=O)c4)nc23)CC[C@H]1N` [Compound 53], the EC50 is 1000 nM.

`COc1cc(F)cc(-c2cnc3ccc(-c4ccc5[nH]c(=O)[nH]c5c4)cc3c2O[C@@H]2CC[C@H](N)C2)c1` [Compound 6]: the EC50 was 63.1 nM.

Regarding `COc1cc(F)cc(-c2cnc3[nH]c(-c4cc(F)cc(C(N)=O)c4)nc3c2N2CCC(N)CC2)c1` [Compound 58], the EC50 was 501 nM.

In the case of `Cc1cc(F)cc(-c2cnc3ccc4cc3c2N2CCC(CC2)NC[C@H](CO)CCOc2c(C#N)cccc2-4)c1` (single isomer, unassigned) [Compound 91], the EC50 is 6.31 nM.

Regarding `Cc1cc(F)cc(-c2cnc3ccc(-c4cccc(C#N)c4O)cc3c2O[C@@H]2CC[C@H](N)C2)c1` [Compound 9], the EC50 was 3.16 nM.

Turning to `Cc1cc(F)cc(-c2cnc3ccc4cc3c2N2CCC(CC2)NCC(N)CCOc2c(C#N)cccc2-4)c1` (centres unmarked) [Compound 95, 7-amino-23-(3-fluoro-5-methylphenyl)-4-oxa-9-aza-2(4,6)-quinolina-1(1,4)-piperidina-3(1.2)-benzenacyclononaphane-33-carbonitrile], the EC50 is 7.94 nM.

As for `N#Cc1cccc(-c2ccc3ncc(-c4cc(F)cc(F)c4)c(-c4ccc(N)cc4)c3c2)c1O` [Compound 122, 3-(4-(4-aminophenyl)-3-(3,5-difluorophenyl)quinolin-6-yl)-2-hydroxy benzonitrile], the EC50 is greater than 10000 nM.

Regarding `NC(=O)c1cc(F)cc(-c2ccc3ncc(-c4cc(F)cc(F)c4)c(O[C@@H]4CC[C@H](N)C4)c3c2)c1` [Compound 10], the EC50 was 10 nM.

On to `NC1CC(Oc2c(-c3cc(F)cc(F)c3)cnc3ccc(-c4cc(F)cc(F)c4)cc23)C1` (centres unmarked) [Compound 17], for which the EC50 was 12.6 nM.

Regarding `COc1cc(F)cc(-c2cnc3[nH]c(-c4cc(F)cc(C(N)=O)c4)nc3c2N2CC[C@@H](N)[C@H](OC)C2)c1` [Compound 50], the concentration for a half-maximal effect (EC50) is greater than 10000 nM.

Regarding `COc1cc(F)cc(-c2cnc3[nH]c(-c4cccc(C#N)c4O)nc3c2N2CC[C@@H](N)[C@H](OC)C2)c1` [Compound 51], the EC50 was greater than 10000 nM.

In the case of `CO[C@@H]1CN(c2c(-c3cc(F)cc(F)c3)cnc3[nH]c(-c4cc(F)cc(C(N)=O)c4)nc23)CC[C@H]1N` [Compound 47], the EC50 is 1000 nM.

Consider `NC1CCN(c2c(-c3cc(F)cc(F)c3)cnc3nc(-c4cccc(Br)c4O)[nH]c23)CC1` [Compound 64], for which the EC50 was 31.6 nM.

Turning to `Cc1cc(F)cc(-c2cnc3c(nc(-c4cccc(C#N)c4O)n3C)c2N2CCC(N)CC2)c1` [Compound 37], the EC50 is 316 nM.

Take `NC(=O)c1cccc2c1OCCCCNC1CCN(CC1)c1c(-c3cc(F)cc(F)c3)cnc3ccc-2cc13` [Compound 75]: the EC50 is 2 nM.

For `CNCCCn1c(=O)n2c3cc(F)c(F)cc3nc2c2cncc(-c3cc(F)cc(F)c3)c21` [Compound 106, 4-(3,5-difluorophenyl)-9,10-difluoro-5-(3-(methylamino)propyl) benzo[4,5]imidazo[1,2-c]pyrido[3,4-e]pyrimidin-6(5H)-one], the EC50 is 2000 nM.

As for `CN1c2c(cnc3ccc(-c4cc(F)cc(F)c4)cc23)-c2cc(F)cc(F)c2C1CCN` (centres unmarked) [Compound 157], the EC50 was 10 nM.

`NC1CCN(c2c(-c3cc(F)cc(F)c3)cnc3ccc(-c4cc(F)cc(F)c4)cc23)CC1` [Compound 145]: the EC50 was 0.0316 nM.

As for `Cn1c(-c2cc(F)cc(C(N)=O)c2)nc2c(N3CCC(N)CC3)c(-c3cc(F)cc(F)c3)cnc21` [Compound 38], the EC50 was 2000 nM.

`NC1CCN(c2c(-c3cc(F)cc(F)c3)cnc3c2C(=O)N(c2ccc(F)c(F)c2)CC3)CC1` [Compound 110]: the EC50 is 158 nM.

Regarding `O=C1NCCCNC2CCN(CC2)c2c(-c3cc(F)cc(F)c3)cnc3ccc(cc23)-c2cccc1n2` [Compound 80], the concentration for a half-maximal effect (EC50) is 6.31 nM.

Take `NCCCN1Cc2ccc(F)cc2-c2cncc(-c3nc4cc(F)c(F)cc4[nH]3)c21` [Compound 108]: the EC50 is 126 nM.

Take `Cc1cc(F)cc(-c2cnc3c(c2N2CCC(N)CC2)-c2nc4cc(F)c(F)cc4n2CC3)c1` [Compound 107, 1-(9,10-difluoro-2-(3-fluoro-5-methylphenyl)-5,6-dihydrobenzo [4,5]imidazo[2,1-f][1,6]naphthyridin-1-yl)piperidin-4-amine]: the EC50 is greater than 79.4 nM.

Consider `Cn1c(-c2cccc(Br)c2O)nc2ncc(-c3cc(F)cc(F)c3)c(N3CCC(NC(=O)OC(C)(C)C)CC3)c21` [Compound 44], for which the EC50 was greater than 10000 nM.
